{
  "source": "patent US12590066B2",
  "about": "“Fused-heterocyclyl-carbonohydrazonoyl dicyanide compounds and use thereof” (KOREA INSTITUTE OF SCIENCE AND TECHNOLOGY, priority 2020, dated 2026)",
  "key": {"tau protein": {"biological_target": "T1, tau protein (Homo sapiens, UniProt P10636)", "T1 construct": "BiFC fluorescent-protein fragments (type and halves not specified); expressed in transfected cells", "T1 sequence (P10636 1-441 isoform P10636-8)": "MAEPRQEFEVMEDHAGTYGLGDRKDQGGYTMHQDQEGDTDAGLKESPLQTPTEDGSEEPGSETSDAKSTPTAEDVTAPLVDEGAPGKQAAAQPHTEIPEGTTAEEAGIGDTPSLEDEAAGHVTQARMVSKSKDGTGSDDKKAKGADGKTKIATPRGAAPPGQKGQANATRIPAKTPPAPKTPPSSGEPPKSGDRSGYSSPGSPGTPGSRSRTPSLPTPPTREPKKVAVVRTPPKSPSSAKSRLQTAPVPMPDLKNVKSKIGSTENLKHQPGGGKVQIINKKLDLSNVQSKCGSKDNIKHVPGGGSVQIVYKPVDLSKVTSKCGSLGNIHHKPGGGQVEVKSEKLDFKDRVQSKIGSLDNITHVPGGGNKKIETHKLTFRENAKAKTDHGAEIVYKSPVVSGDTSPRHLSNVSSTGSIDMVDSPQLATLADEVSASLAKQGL", "experiment": "Tau-BiFC cell model, inhibition of Forskolin-induced tau protein aggregation", "assay_type": "cell-based", "settings": "Forskolin 30 μM, 48 hours; for Tau BiFC in cells Response (% @10 μM): 10 μM compound, Forskolin-only group = 100% tau protein-aggregated state; for IC50: tau-BiFC cells", "how_it_was_run": "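Tau-BiFC cells co-treated 48 h with 30 μM forskolin and compounds (1, 3, 10 μM screen; 0.01–30 μM dose-response). BiFC fluorescence normalized to forskolin-only (100% aggregation) minus untreated gives aggregation inhibition and IC50; viability as Hoechst-stained nuclei count relative to forskolin-only.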"}, "CYP3A4": {"biological_target": "T2, CYP3A4 (Homo sapiens, UniProt P08684)", "T2 construct": "human liver microsomes (0.25 mg/mL); from tissue; host or cells: human liver microsomes", "T2 sequence (P08684 whole entry)": "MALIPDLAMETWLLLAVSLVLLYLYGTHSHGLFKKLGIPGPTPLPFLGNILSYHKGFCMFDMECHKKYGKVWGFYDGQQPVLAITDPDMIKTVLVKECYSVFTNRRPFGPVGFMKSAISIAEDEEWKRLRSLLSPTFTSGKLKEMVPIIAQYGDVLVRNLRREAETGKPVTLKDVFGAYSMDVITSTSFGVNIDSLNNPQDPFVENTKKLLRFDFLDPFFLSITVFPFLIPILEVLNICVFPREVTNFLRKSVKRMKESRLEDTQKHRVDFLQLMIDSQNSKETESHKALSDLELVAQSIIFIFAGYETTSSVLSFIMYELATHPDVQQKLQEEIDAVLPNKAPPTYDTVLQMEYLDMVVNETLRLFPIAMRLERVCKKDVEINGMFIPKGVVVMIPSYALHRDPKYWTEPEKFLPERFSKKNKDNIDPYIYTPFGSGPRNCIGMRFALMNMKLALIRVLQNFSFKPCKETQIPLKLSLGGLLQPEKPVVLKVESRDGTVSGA", "experiment": "Inhibitory effect on CYP coenzyme activity, human liver microsomes", "assay_type": "in vitro ADME", "settings": "10 μM compound, human liver microsomes 0.25 mg/mL, substrate midazolam, 15 minutes", "method": "(§1) The inhibitory effects of the compounds prepared according to Examples 1 to 57 on CYP coenzyme activity were identified. Specifically, human liver microsomes (0.25 mg/mL), a 0.1 M phosphate buffer solution (pH 7.4), a substrate drug cocktail of five types of drug metabolism enzymes (50 μM phenacetin, 10 μM diclofenac, 100 μM S-mephenytoin, 5 μM dextromethorphan, and 2.5 μM midazolam), and the compound at a concentration of 0 μM or 10 μM were mixed and pre-cultured at 37° C. for 5 minutes, and then further cultured at 37° C. for 15 minutes together with an NADPH generation system solution added thereto. Thereafter, the reaction was terminated by adding an acetonitrile solution containing an internal standard material (terfenadine) and centrifuged for 5 minutes (14,000 rpm, 4° C.), and then a supernatant was injected into an LC-MS/MS system for simultaneous analysis of metabolites of the substrate drugs to thereby evaluate the inhibitory effects on drug metabolism.\n(§2) Metabolites of each CYP coenzyme indicator drug generated through the reaction were analyzed using the Shimadzu Nexera XR system and TSQ Vantage (Thermo). In an HPLC column, Kinetex C18 (2.1 mm×100 mm, 2.6 μm, particle size; Phenomenex, USA) was used, and mobile phases were (A) distilled water containing 0.1% formic acid and (B) acetonitrile containing 0.1% formic acid, and a gradient program shown in Table 3 was applied thereto.\n(§3) The generated metabolites were quantified using a multiple reaction monitoring (MRM) quantification mode, and Xcalibur (version 1.6.1) was used for data analysis. In order to express inhibitory effects of the novel compound prepared according to the examples of the present invention on CYP coenzyme activity, CYP coenzyme activities (%) with respect to the control group not treated with the compound are shown in Table 4 below."}, "CYP2C9": {"biological_target": "T3, CYP2C9 (Homo sapiens, UniProt P11712)", "T3 construct": "human liver microsomes (0.25 mg/mL); from tissue; host or cells: human liver microsomes", "T3 sequence (P11712 whole entry)": "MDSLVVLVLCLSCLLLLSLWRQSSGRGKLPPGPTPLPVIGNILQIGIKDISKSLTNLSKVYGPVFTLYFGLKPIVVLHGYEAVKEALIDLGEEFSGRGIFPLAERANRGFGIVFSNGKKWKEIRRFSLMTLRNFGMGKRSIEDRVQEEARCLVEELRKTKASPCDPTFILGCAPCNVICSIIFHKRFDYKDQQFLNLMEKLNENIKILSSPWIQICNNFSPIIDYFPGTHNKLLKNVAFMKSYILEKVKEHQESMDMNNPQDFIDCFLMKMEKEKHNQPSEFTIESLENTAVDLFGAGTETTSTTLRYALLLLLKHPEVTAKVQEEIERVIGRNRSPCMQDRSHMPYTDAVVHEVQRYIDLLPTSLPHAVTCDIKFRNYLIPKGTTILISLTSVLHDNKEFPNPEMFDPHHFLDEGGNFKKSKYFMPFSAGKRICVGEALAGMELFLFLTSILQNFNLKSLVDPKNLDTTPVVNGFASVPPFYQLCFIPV", "experiment": "Inhibitory effect on CYP coenzyme activity, human liver microsomes", "assay_type": "in vitro ADME", "settings": "10 μM compound, human liver microsomes 0.25 mg/mL, substrate diclofenac, 15 minutes", "method": "as §1, §2, §3"}, "[1]": {"experiment": "Liver microsome stability", "assay_type": "in vitro ADME", "settings": "1 μM compound, 37° C., 30 minutes, NADPH; for Dog (%) amount of substrate remaining after the reaction: dog liver microsomes 0.25 mg/mL; for Human (%) amount of substrate remaining after the reaction: human liver microsomes 0.25 mg/mL; for Mouse (%) amount of substrate remaining after the reaction: mouse liver microsomes 0.25 mg/mL; for Rat (%) amount of substrate remaining after the reaction: rat liver microsomes 0.25 mg/mL", "method": "The stability of liver microsomes due to the compounds prepared according to Examples 1 to 57 was confirmed. Specifically, four types of liver microsomes (human, dog, rat, and mouse, each 0.25 mg/mL), a 0.1 M phosphate buffer solution (pH 7.4), and each of the compounds at a concentration of 1 μM were mixed and pre-cultured at 37° C. for 5 minutes and further cultured at 37° C. for 30 minutes together with an NADPH generation system solution added thereto. Thereafter, the reaction was terminated by adding an acetonitrile solution containing an internal standard material (chloropropamide) and centrifuged for 5 minutes (14,000 rpm, 4° C.), and then a supernatant was injected into an LC-MS/MS system for analysis of substrate drugs to thereby evaluate metabolic stability due to 8 types of compounds.\nThe amount of the substrate remaining after the reaction was analyzed using the Shimadzu Nexera XR system and TSQ Vantage (Thermo). In an HPLC column, Kinetex XB-C18 (2.1 mm×100 mm, particle size of 2.6 μm; Phenomenex, USA) was used, and mobile phases were (A) distilled water containing 0.1% formic acid and (B) acetonitrile containing 0.1% formic acid. Analyst software (version 1.6.3) and Xcalibur (version 1.6.1) were used for data analysis."}},
  "data": [
    {"smiles": "CC(C)n1c(=O)oc2cc(NN=C(C#N)C#N)ccc21", "note": "[Compound 20, (3-isopropyl-2-oxo-2,3-dihydrobenzo[d]oxazol-6-yl)carbonohydrazonoyl dicyanide]", "values": [
      {"measurement": "Tau BiFC in cells Response (% @10 μM)", "setting": "tau protein", "result": 0, "unit": "%"},
      {"measurement": "IC50", "setting": "tau protein", "result": 0.1, "unit": "µM"},
      {"measurement": "CYP3A4 coenzyme activity (%) with respect to control group not treated", "setting": "CYP3A4", "result": 98.8, "unit": "%"},
      {"measurement": "CYP2C9 coenzyme activity (%) with respect to control group not treated", "setting": "CYP2C9", "result": 32.3, "unit": "%"},
      {"measurement": "Dog (%) amount of substrate remaining after the reaction", "setting": "[1]", "result": 95.6, "unit": "%"},
      {"measurement": "Human (%) amount of substrate remaining after the reaction", "setting": "[1]", "result": 98.1, "unit": "%"},
      {"measurement": "Mouse (%) amount of substrate remaining after the reaction", "setting": "[1]", "result": 73.1, "unit": "%"},
      {"measurement": "Rat (%) amount of substrate remaining after the reaction", "setting": "[1]", "result": 73.3, "unit": "%"}
    ]},
    {"smiles": "CC(C)n1c(=O)n(C(F)F)c2cc(NN=C(C#N)C#N)ccc21", "note": "[Compound 43, (3-(difluoromethyl)-1-isopropyl-2-oxo-2,3-dihydro-1H-benzo[d]imidazol-5-yl)carbonohydrazonoyl dicyanide]", "values": [
      {"measurement": "Tau BiFC in cells Response (% @10 μM)", "setting": "tau protein", "result": "−49", "unit": "%"},
      {"measurement": "IC50", "setting": "tau protein", "result": 0.01, "unit": "µM"},
      {"measurement": "CYP3A4 coenzyme activity (%) with respect to control group not treated", "setting": "CYP3A4", "result": 72.6, "unit": "%"},
      {"measurement": "CYP2C9 coenzyme activity (%) with respect to control group not treated", "setting": "CYP2C9", "result": 14.1, "unit": "%"},
      {"measurement": "Human (%) amount of substrate remaining after the reaction", "setting": "[1]", "result": 81.5, "unit": "%"},
      {"measurement": "Mouse (%) amount of substrate remaining after the reaction", "setting": "[1]", "result": 58.6, "unit": "%"},
      {"measurement": "Rat (%) amount of substrate remaining after the reaction", "setting": "[1]", "result": 86.2, "unit": "%"}
    ]},
    {"smiles": "CCn1c(=O)n(C(C)C)c2ncc(NN=C(C#N)C#N)cc21", "note": "[Compound 55, (1-ethyl-3-isopropyl-2-oxo-2,3-dihydro-1H-imidazo[4,5-b]pyridin-6-yl)carbonohydrazonoyl dicyanide]", "values": [
      {"measurement": "Tau BiFC in cells Response (% @10 μM)", "setting": "tau protein", "result": "−32", "unit": "%"},
      {"measurement": "IC50", "setting": "tau protein", "result": 0.11, "unit": "µM"},
      {"measurement": "CYP3A4 coenzyme activity (%) with respect to control group not treated", "setting": "CYP3A4", "result": 78, "unit": "%"},
      {"measurement": "CYP2C9 coenzyme activity (%) with respect to control group not treated", "setting": "CYP2C9", "result": 38.9, "unit": "%"},
      {"measurement": "Human (%) amount of substrate remaining after the reaction", "setting": "[1]", "result": 85.5, "unit": "%"},
      {"measurement": "Mouse (%) amount of substrate remaining after the reaction", "setting": "[1]", "result": 87.7, "unit": "%"},
      {"measurement": "Rat (%) amount of substrate remaining after the reaction", "setting": "[1]", "result": 91.8, "unit": "%"}
    ]},
    {"smiles": "Cn1c(=O)n(C)c2c(Cl)cc(NN=C(C#N)C#N)cc21", "note": "[Compound 11, (7-chloro-1,3-dimethyl-2-oxo-2,3-dihydro-1H-benzo[d]imidazol-5-yl)carbonohydrazonoyl dicyanide]", "values": [
      {"measurement": "Tau BiFC in cells Response (% @10 μM)", "setting": "tau protein", "result": 0, "unit": "%"},
      {"measurement": "IC50", "setting": "tau protein", "result": 0.1, "unit": "µM"},
      {"measurement": "CYP3A4 coenzyme activity (%) with respect to control group not treated", "setting": "CYP3A4", "result": ">100", "unit": "%"},
      {"measurement": "CYP2C9 coenzyme activity (%) with respect to control group not treated", "setting": "CYP2C9", "result": 45.8, "unit": "%"},
      {"measurement": "Dog (%) amount of substrate remaining after the reaction", "setting": "[1]", "result": 63.1, "unit": "%"},
      {"measurement": "Human (%) amount of substrate remaining after the reaction", "setting": "[1]", "result": 96.1, "unit": "%"},
      {"measurement": "Mouse (%) amount of substrate remaining after the reaction", "setting": "[1]", "result": 63.9, "unit": "%"},
      {"measurement": "Rat (%) amount of substrate remaining after the reaction", "setting": "[1]", "result": 82.8, "unit": "%"}
    ]},
    {"smiles": "Cn1c(=O)n(C(F)F)c2cc(NN=C(C#N)C#N)ccc21", "note": "[Compound 37, (3-(difluoromethyl)-1-methyl-2-oxo-2,3-dihydro-1H-benzo[d]imidazol-5-yl)carbonohydrazonoyl dicyanide]", "values": [
      {"measurement": "Tau BiFC in cells Response (% @10 μM)", "setting": "tau protein", "result": "−49", "unit": "%"},
      {"measurement": "IC50", "setting": "tau protein", "result": 0.2, "unit": "µM"},
      {"measurement": "CYP3A4 coenzyme activity (%) with respect to control group not treated", "setting": "CYP3A4", "result": 96.7, "unit": "%"},
      {"measurement": "CYP2C9 coenzyme activity (%) with respect to control group not treated", "setting": "CYP2C9", "result": 29.2, "unit": "%"},
      {"measurement": "Human (%) amount of substrate remaining after the reaction", "setting": "[1]", "result": 84.9, "unit": "%"},
      {"measurement": "Mouse (%) amount of substrate remaining after the reaction", "setting": "[1]", "result": 75.7, "unit": "%"},
      {"measurement": "Rat (%) amount of substrate remaining after the reaction", "setting": "[1]", "result": 58.5, "unit": "%"}
    ]},
    {"smiles": "N#CC(C#N)=NNc1ccc2c(c1)oc(=O)n2C(F)F", "note": "[Compound 21, (3-(difluoromethyl)-2-oxo-2,3-dihydrobenzo[d]oxazol-6-yl)carbonohydrazonoyl dicyanide]", "values": [
      {"measurement": "Tau BiFC in cells Response (% @10 μM)", "setting": "tau protein", "result": 0, "unit": "%"},
      {"measurement": "IC50", "setting": "tau protein", "result": 0.6, "unit": "µM"},
      {"measurement": "CYP3A4 coenzyme activity (%) with respect to control group not treated", "setting": "CYP3A4", "result": 90.4, "unit": "%"},
      {"measurement": "CYP2C9 coenzyme activity (%) with respect to control group not treated", "setting": "CYP2C9", "result": 64.4, "unit": "%"},
      {"measurement": "Dog (%) amount of substrate remaining after the reaction", "setting": "[1]", "result": 72.1, "unit": "%"},
      {"measurement": "Human (%) amount of substrate remaining after the reaction", "setting": "[1]", "result": 73.9, "unit": "%"},
      {"measurement": "Mouse (%) amount of substrate remaining after the reaction", "setting": "[1]", "result": 71.8, "unit": "%"},
      {"measurement": "Rat (%) amount of substrate remaining after the reaction", "setting": "[1]", "result": 79.8, "unit": "%"}
    ]},
    {"smiles": "Cn1c(=O)n(C)c2cc(NN=C(C#N)C#N)c(Cl)cc21", "note": "[Compound 10, (6-chloro-1,3-dimethyl-2-oxo-2,3-dihydro-1H-benzo[d]imidazol-5-yl)carbonohydrazonoyl dicyanide]", "values": [
      {"measurement": "Tau BiFC in cells Response (% @10 μM)", "setting": "tau protein", "result": 0, "unit": "%"},
      {"measurement": "IC50", "setting": "tau protein", "result": 0.3, "unit": "µM"},
      {"measurement": "CYP3A4 coenzyme activity (%) with respect to control group not treated", "setting": "CYP3A4", "result": ">100", "unit": "%"},
      {"measurement": "CYP2C9 coenzyme activity (%) with respect to control group not treated", "setting": "CYP2C9", "result": ">100", "unit": "%"},
      {"measurement": "Dog (%) amount of substrate remaining after the reaction", "setting": "[1]", "result": 98.1, "unit": "%"},
      {"measurement": "Human (%) amount of substrate remaining after the reaction", "setting": "[1]", "result": ">100", "unit": "%"},
      {"measurement": "Mouse (%) amount of substrate remaining after the reaction", "setting": "[1]", "result": 92.6, "unit": "%"},
      {"measurement": "Rat (%) amount of substrate remaining after the reaction", "setting": "[1]", "result": 92.7, "unit": "%"}
    ]}
  ]
}
